# Read-outs that look alike come from different tables or passages of the source.
# Tests used:
# FtsZ [1] = conditions: His-tagged FtsA
# Experimental: (§1) Co-treadmilling of FtsA with FtsZ relies on the dynamic exchange of FtsA on the membrane. […] To investigate the respective contributions of membrane binding kinetics and FtsA self-interaction on the colocalization dynamics with FtsZ, we wanted to create variants of the two FtsA proteins that are permanently attached to the membrane. […] Accordingly, in these experiments the proteins only differ in their tendency to form oligomers.
# (§2) To study colocalization of His-tagged variants of FtsA, 0.5–1 µM of Cy5 labelled His-tagged FtsAs were added to the chamber, incubated for 20 min and washed 6x with reaction buffer. […] To control the density of membrane-bound FtsA, SUVs without and with Tris-NTA lipids were mixed to obtain the respective Tris-NTA concentrations. To perform FRET/FRAP experiments, equimolar concentrations of Cy3 and Cy5 labelled His-tagged FtsAs (total 0.5–1 µM) or His-SUMO-Cys were added to a chamber and treated as above. […] FRAP experiments were performed as described before.
# Time-lapse videos were first intensity-corrected and contrast-enhanced to avoid bleaching effects and simplify subsequent analysis. To remove contributions of X–Y drift, the videos were processed with the Linear Stack Alignment with SIFT plugin. Proper alignment was checked with the 3TP align plugin (J. A. Parker; Beth Israel Deaconess Medical Center, Boston). Subsequently, regions of interest (ROIs) in the center of the stacks were chosen for colocalization analysis. The Pearson’s correlation coefficient (PCC) was quantified with the Image CorrelationJ 1o plugin. To extract information about the relative ratio of FtsZ/FtsA molecules (slope of linear regression), we also used the Image CorrelationJ 1o plugin. As an output, the plugin provides a scatterplot of FtsZ vs FtsA intensities, to which we fitted a linear slope y=k⋅x+d , where k is the slope and d the offset. The slope was used as an estimate for the ratio of FtsA molecules below FtsZ filaments.
# [2] = Membrane off-binding rate (koff) of FtsA from FRAP
# Source text: We could also use the data from these bleaching experiments to quantify the membrane-binding kinetics and diffusion of membrane-bound proteins by analysing the change of the fluorescence profile during recovery.
# Equimolar concentrations of Cy3- and Cy5-labelled FtsA, supplemented with 20% unlabelled FtsA were used to study FRET and FRAP. Five pre-bleach frames were acquired, followed by acceptor photobleaching of a rectangular ROI with 40% 641 nm laser power and a dwell size of 1 µs/pixel, 75% overlapping lines. The recovery of the signal or the increase in donor intensity were measured with either two frames or one frame per second.
# Bleaching the acceptor dye leads to an increase in the donor intensity, which can be used to quantify the Foerster Resonance energy transfer (FRET)[48]. FRET efficiency was quantified with E%=Ipost/Ipost+Ipre⋅100 , where Ipost is the intensity of the […] and Ipre is the […]. […] To extract the contribution of both processes, we adjusted a routine recently published by Gerganova et al.[33]. In short, the code provides the contribution of both modes of recovery by analysing the shape of the fluorescence recovery profile. […] Contribution of diffusion leads to a change of the slope of the outer borders of the bleached region (S4h right). Thus, by measuring the change of the slope of the border recovery, diffusion and simple on/off binding can be distinguished. We developed “FRAPdiff”, a graphical user interface, which uses the original fit routine by David Rutkowski. It can be used directly on.tiff movies with annotated bleach regions as ImageJ ROIs. In addition, we added optional bleach correction, user selectable projection axis (x or y), and optional mirroring of the recovery profiles, if bleaching was not symmetric. The original fit routine for estimating the recovery and diffusion dynamics can be found at https://github.com/davidmrutkowski/1DReflectingDiffusion. FRAPdiff is available at 10.5281/zenodo.6400639[49] under the GPLv3 open-source license.
# FtsZ [3] = conditions: His-tagged FtsA; remark: listed apart in the source
# Experimental: as §1, §2
# Treadmilling dynamics, were quantified using an automated image analysis protocol previously developed by our group. To visualize colocalization of the co-treadmilling FtsZ & FtsA filaments, we used dual-colour videos obtained at an acquisition rate of one frame per 2 s. The two channels were aligned using FIJI’s 3TP align plugin. Both channels were then subjected to the image subtraction protocol and colocalization was measured as described above.
# [4] = 0.60% Tris NTA, Exp. 1 (statistical analysis)
# [5] = 0.60% Tris NTA, Exp. 2 (statistical analysis)
# [6] = 0.80% Tris NTA, Exp. 1 (statistical analysis)
# [7] = 0.80% Tris NTA, Exp. 3 (statistical analysis)
# [8] = 1.00% Tris NTA, Exp. 1 (statistical analysis)
# [9] = 1.00% Tris NTA, Exp. 2 (statistical analysis)
# [10] = 1.00% Tris NTA, Exp. 3 (statistical analysis)
# [11] = 2.00% Tris NTA, Exp. 1 (statistical analysis)
# [12] = 2.00% Tris NTA, Exp. 2 (statistical analysis)
# [13] = 2.00% Tris NTA, Exp. 3 (statistical analysis)
# [14] = […] Tris NTA, Exp. 1 (statistical analysis)
# [15] = […] Tris NTA, Exp. 2 (statistical analysis)
# [16] = […] Tris NTA, Exp. 3 (statistical analysis)
substance,measurement,setting,value
"FtsA WT: wild-type E. coli actin-homologue FtsA, membrane anchor of FtsZ",PCC,FtsZ [1]; [4],0.58
same,PCC,FtsZ [1]; [5],0.73
same,"PCC, Mean","FtsZ [1]; 0.60% Tris NTA, n = 2 (WT), 3 (R286W), sd 0.07, 0.08, p-value 0.39",0.65
same,PCC,FtsZ [1]; [6],0.66
same,PCC,"FtsZ [1]; 0.80% Tris NTA, Exp. 2 (statistical analysis)",0.70
same,PCC,FtsZ [1]; [7],0.68
same,"PCC, Mean","FtsZ [1]; 0.80% Tris NTA, n = 3, 3, sd 0.0141 (WT), 0.0648 (R286W), p-value 0.61",0.68
same,PCC,FtsZ [1]; [8],0.53
same,PCC,FtsZ [1]; [9],0.60
same,PCC,FtsZ [1]; [10],0.73
same,PCC,"FtsZ [1]; 1.00% Tris NTA, Exp. 4 (statistical analysis)",0.53
same,"PCC, Mean","FtsZ [1]; 1.00% Tris NTA, n = 4 (WT), 3 (R286W), sd 0.08, 0.0316, p-value 6.25E-02",0.60
same,PCC,FtsZ [1]; [11],0.12
same,PCC,FtsZ [1]; [12],0.14
same,PCC,FtsZ [1]; [13],0.16
same,"PCC, Mean","FtsZ [1]; 2.00% Tris NTA, n = 3, 3, sd 0.0143 (WT), 0.04 (R286W), p-value 1.59E-04",0.14
same,PCC,FtsZ [1]; [14],0.16
same,PCC,FtsZ [1]; [15],0.0429
same,PCC,FtsZ [1]; [16],0.18
same,"PCC, Mean","FtsZ [1]; […] Tris NTA, n = 3, 3, sd 0.06 (WT), 0.02 (R286W), p-value 3.86E-04",0.13
same,"Off binding rate, mean",[2]; 0.1 µM FtsA + FtsN&Z,0.018 s
same,"Off binding rate, mean",[2]; 0.1 µM FtsA + FtsN,0.032 s
same,"Off binding rate, mean",[2]; 0.1 µM FtsA + FtsZ,0.0428 s
same,"Off binding rate, mean",[2]; 0.1 µM FtsA alone,0.0544 s
same,"Off binding rate, mean",[2]; 0.2 µM FtsA + FtsN&Z,0.0128 s
same,"Off binding rate, mean",[2]; 0.2 µM FtsA + FtsN,0.026 s
same,"Off binding rate, mean",[2]; 0.2 µM FtsA + FtsZ,0.0502 s
same,"Off binding rate, mean",[2]; 0.2 µM FtsA alone,0.0443 s
same,"Off binding rate, mean",[2]; 0.4 µM FtsA + FtsN&Z,0.0174 s
same,"Off binding rate, mean",[2]; 0.4 µM FtsA + FtsN,0.0196 s
same,"Off binding rate, mean",[2]; 0.4 µM FtsA + FtsZ,0.0502 s
same,"Off binding rate, mean",[2]; 0.4 µM FtsA alone,0.0375 s
same,membrane exchange (off-rate),"[2]; 0.4 µM FtsA, p-value 6.73 × 10^−6",0.04 ± 0.01 s⁻¹
same,"Off binding rate, mean",[2]; 0.8 µM FtsA + FtsN&Z,0.0278 s
same,"Off binding rate, mean",[2]; 0.8 µM FtsA + FtsN,0.0277 s
same,"Off binding rate, mean",[2]; 0.8 µM FtsA + FtsZ,0.0562 s
same,"Off binding rate, mean",[2]; 0.8 µM FtsA alone,0.0396 s
same,Off binding rate,"[2]; Fig. S3i/S3j, 0.10 µM FtsA, replicate 1",0.0471 s⁻¹
same,Off binding rate,"[2]; Fig. S3i/S3j, 0.10 µM FtsA, replicate 2",0.024 s⁻¹
same,Off binding rate,"[2]; Fig. S3i/S3j, 0.10 µM FtsA, replicate 3",0.0306 s⁻¹
same,Off binding rate,"[2]; Fig. S3i/S3j, 0.10 µM FtsA, replicate 4",0.0374 s⁻¹
same,Off binding rate,"[2]; Fig. S3i/S3j, 0.10 µM FtsA, summary value",0.0544 s⁻¹
same,Off binding rate,"[2]; Fig. S3i/S3j, 0.20 µM FtsA, summary value",0.0443 s⁻¹
same,Off binding rate,"[2]; Fig. S3i/S3j, 0.40 µM FtsA, summary value",0.0375 s⁻¹
same,Off binding rate,"[2]; Fig. S3i/S3j, 0.80 µM FtsA, summary value",0.0396 s⁻¹
same,Off binding rate,"[2]; Fig. S3m, AMP PNP, 0.10 µM FtsA, replicate 1",0.0505 s⁻¹
same,Off binding rate,"[2]; Fig. S3m, AMP PNP, 0.10 µM FtsA, replicate 2",0.0348 s⁻¹
same,Off binding rate,"[2]; Fig. S3m, AMP PNP, 0.20 µM FtsA, replicate 1",0.0493 s⁻¹
same,Off binding rate,"[2]; Fig. S3m, AMP PNP, 0.20 µM FtsA, replicate 2",0.0628 s⁻¹
same,Off binding rate,"[2]; Fig. S3m, AMPPNP, 0.10 µM FtsA, summary value",0.04 s⁻¹
same,Off binding rate,"[2]; Fig. S3m, AMPPNP, 0.20 µM FtsA, summary value",0.06 s⁻¹
same,Off binding rate,"[2]; Fig. S3m, AMPPNP, 0.40 µM FtsA, summary value",0.08 s⁻¹
same,Off binding rate,"[2]; Fig. S3m, AMPPNP, 0.80 µM FtsA, summary value",0.06 s⁻¹
same,Off binding rate,"[2]; Fig. S3m, ATP, 0.10 µM FtsA, summary value",0.05 s⁻¹
same,Off binding rate,"[2]; Fig. S3m, ATP, 0.20 µM FtsA, summary value",0.04 s⁻¹
same,Off binding rate,"[2]; Fig. S3m, ATP, 0.40 µM FtsA, summary value",0.04 s⁻¹
same,Off binding rate,"[2]; Fig. S3m, ATP, 0.80 µM FtsA, summary value",0.04 s⁻¹
same,Off binding rate,"[2]; Fig. S3m, ATPgS, 0.10 µM FtsA, summary value",0.0254 s⁻¹
same,Off binding rate,"[2]; Fig. S3m, ATPgS, 0.20 µM FtsA, summary value",0.0233 s⁻¹
same,Off binding rate,"[2]; Fig. S3m, ATPgS, 0.40 µM FtsA, summary value",0.0157 s⁻¹
same,Off binding rate,"[2]; Fig. S3m, ATPgS, 0.80 µM FtsA, summary value",0.0252 s⁻¹
same,membrane off-rate,[2]; in the presence of FtsZ,~0.05 s⁻¹
same,time bound relative to FtsZ monomers (times longer),[2]; in the presence of FtsZ,2–4 times
same,Differential PCC,FtsZ [3]; [4],0.51
same,Differential PCC,FtsZ [3]; [5],0.47
same,"Differential PCC, Mean","FtsZ [3]; 0.60% Tris NTA, n = 2 (WT), 3 (R286W), sd 0.02, 0.057, p-value 0.67",0.49
same,Differential PCC,FtsZ [3]; [6],0.49
same,Differential PCC,FtsZ [3]; [7],0.47
same,"Differential PCC, Mean","FtsZ [3]; 0.80% Tris NTA, n = 3, 3, sd 0.05 (WT), 0.0749 (R286W), p-value 0.13",0.45
same,Differential PCC,FtsZ [3]; [8],0.49
same,Differential PCC,FtsZ [3]; [9],0.28
same,Differential PCC,FtsZ [3]; [10],0.23
same,"Differential PCC, Mean","FtsZ [3]; 1.00% Tris NTA, n = 3, 3, sd 0.12 (WT), 0.0377 (R286W), p-value 5.89E-02",0.33
same,Differential PCC,FtsZ [3]; [11],0.06
same,Differential PCC,FtsZ [3]; [12],0.14
same,Differential PCC,FtsZ [3]; [13],0.0238
same,"Differential PCC, Mean","FtsZ [3]; 2.00% Tris NTA, n = 3, 3, sd 0.0469 (WT), 0.04 (R286W), p-value 2.27E-03",0.0739
same,Differential PCC,FtsZ [3]; [14],0.05
same,Differential PCC,FtsZ [3]; [15],0.035
same,Differential PCC,FtsZ [3]; [16],0.12
same,"Differential PCC, Mean","FtsZ [3]; […] Tris NTA, n = 3, 3, sd 0.0371 (WT), 0.02 (R286W), p-value 5.70E-04",0.07

# Source: PMC9098913, “In vitro reconstitution of Escherichia coli divisome activation” (Nature Communications, 2022)
